# Results: patent publication US20220144817A1 (Karuna Therapeutics, Inc., priority 2019, published 2022)
# Where a name gives a salt, the structure may show the parent alone.
# Assays:
# [1] = Pharmacokinetics following single oral dose administration in male Sprague-Dawley rats; assay type: in vivo; conditions: single oral dose of the tartrate salt, 25 mg/kg, plasma, normalized to actual dosing concentration
# Method: Blood samples were collected from all animals in Groups 1-3 at 0.25, 0.5, 1, 2, 4, 6, 8, 12 and 24 hours post dose, with each animal bled at all time points. […] The slopes of the elimination phase of the concentrations vs. time curve used to calculate the T1/2 were determined by log-linear regression.
# PK analyses were performed and validated using Phoenix® WinNonlin® version 8.0.
# Estimated elimination half-life (tr) was also similar among treatment groups (ranged between 1.5 and 2.7 hours post-dose).
# [2] = target: T1, muscarinic acetylcholine receptor human M2 (hM2) (Homo sapiens, UniProt P08172); experiment: pERK dose response in CHO cells stably expressing hM2; assay type: cell-based; conditions: rank hM3>hM5>hM2
# T1 construct: expressed in transfected cells
# T1 sequence (P08172 1-466): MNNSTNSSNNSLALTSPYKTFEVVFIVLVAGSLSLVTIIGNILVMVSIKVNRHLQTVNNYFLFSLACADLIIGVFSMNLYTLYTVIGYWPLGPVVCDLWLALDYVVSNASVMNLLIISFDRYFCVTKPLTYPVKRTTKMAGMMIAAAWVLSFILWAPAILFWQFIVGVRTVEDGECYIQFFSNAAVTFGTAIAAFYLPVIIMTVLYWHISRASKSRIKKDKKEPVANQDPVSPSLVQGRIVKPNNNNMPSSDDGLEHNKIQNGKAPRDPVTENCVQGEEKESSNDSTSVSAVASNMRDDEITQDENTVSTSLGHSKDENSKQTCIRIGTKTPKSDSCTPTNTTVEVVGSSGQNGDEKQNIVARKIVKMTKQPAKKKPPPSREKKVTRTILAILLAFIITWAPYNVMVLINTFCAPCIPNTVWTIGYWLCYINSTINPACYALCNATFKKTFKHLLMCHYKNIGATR
# [3] = target: T2, muscarinic acetylcholine receptor human M3 (hM3) (Homo sapiens, UniProt P20309); experiment: pERK dose response in CHO cells stably expressing hM3; assay type: cell-based; conditions: for EC50: CHO cells expressing hM3, 5-minute incubation, normalized to maximum FBS response, n=3, read-out: pEC50 (pERK), M3 (converted); for agonist capacity at hM3: pERK, rank hM3>hM5>hM2
# T2 construct: expressed in transfected cells
# [4] = target: T3, muscarinic acetylcholine receptor human M4 (hM4) (Homo sapiens, UniProt P08173); conditions: pERK; rank hM4>hM1
# T3 sequence (P08173 1-479): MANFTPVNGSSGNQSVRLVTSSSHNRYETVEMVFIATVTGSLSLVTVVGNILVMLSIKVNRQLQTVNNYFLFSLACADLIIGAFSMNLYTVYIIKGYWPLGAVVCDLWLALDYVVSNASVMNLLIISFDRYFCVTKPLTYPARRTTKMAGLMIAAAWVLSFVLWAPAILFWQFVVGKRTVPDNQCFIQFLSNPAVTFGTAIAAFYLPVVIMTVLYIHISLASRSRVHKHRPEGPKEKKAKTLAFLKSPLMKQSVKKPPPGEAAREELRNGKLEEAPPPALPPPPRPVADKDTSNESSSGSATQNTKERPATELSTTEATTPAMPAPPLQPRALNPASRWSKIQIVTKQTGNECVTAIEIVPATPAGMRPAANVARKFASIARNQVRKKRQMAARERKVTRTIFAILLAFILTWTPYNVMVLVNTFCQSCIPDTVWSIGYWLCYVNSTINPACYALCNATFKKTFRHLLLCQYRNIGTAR
# From the text: (§1) The Flp-In™ cell lines are designed for rapid generation of stable cell lines that express a protein of interest from a Flp-In™ expression vector.
# (§2) Extracellular signal-related kinase (ERK1/2 or p42/44) is a kinase in the mitogen-activated protein kinase (MAPK) family. Phosphorylation of ERK (pERK) can be used as a common end point measurement for the activation of many classes of G protein coupled receptors (GPCR) and beta-arrestin linked signaling.
# (§3) For the pERK assay, cells were serum starved for 5 to 6 hours. Curves were normalized to the maximum response from the fetal bovine serum (FBS) medium corresponding to a 5-minute stimulation. A 5-minute incubation with the agonists was selected for the dose response pERK assays (n=2).
# (§4) Nonlinear regression curves were calculated per the three parameters method with no constraints.
# [5] = target: T4, muscarinic acetylcholine receptor human M5 (hM5) (Homo sapiens, UniProt P08912); experiment: pERK dose response in CHO cells stably expressing hM5; assay type: cell-based; conditions: rank hM3>hM5>hM2
# T4 construct: expressed in transfected cells
# T4 sequence (P08912 1-532): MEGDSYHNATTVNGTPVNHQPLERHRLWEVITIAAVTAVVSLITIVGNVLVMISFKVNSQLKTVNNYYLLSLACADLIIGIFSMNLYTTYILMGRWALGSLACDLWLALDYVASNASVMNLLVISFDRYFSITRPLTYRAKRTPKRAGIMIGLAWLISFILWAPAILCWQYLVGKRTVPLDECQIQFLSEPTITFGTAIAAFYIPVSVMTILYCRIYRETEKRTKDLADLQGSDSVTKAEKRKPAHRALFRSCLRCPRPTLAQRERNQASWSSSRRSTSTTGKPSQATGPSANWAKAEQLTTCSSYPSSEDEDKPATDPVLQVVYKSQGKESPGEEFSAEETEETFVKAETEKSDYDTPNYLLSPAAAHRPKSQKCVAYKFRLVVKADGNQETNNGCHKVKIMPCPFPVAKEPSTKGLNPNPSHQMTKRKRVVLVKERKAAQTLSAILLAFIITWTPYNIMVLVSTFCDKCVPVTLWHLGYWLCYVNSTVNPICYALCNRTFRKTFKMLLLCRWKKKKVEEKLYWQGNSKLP
# From the text: as §1, §2, §3, §4
# T2 sequence (P20309 whole entry): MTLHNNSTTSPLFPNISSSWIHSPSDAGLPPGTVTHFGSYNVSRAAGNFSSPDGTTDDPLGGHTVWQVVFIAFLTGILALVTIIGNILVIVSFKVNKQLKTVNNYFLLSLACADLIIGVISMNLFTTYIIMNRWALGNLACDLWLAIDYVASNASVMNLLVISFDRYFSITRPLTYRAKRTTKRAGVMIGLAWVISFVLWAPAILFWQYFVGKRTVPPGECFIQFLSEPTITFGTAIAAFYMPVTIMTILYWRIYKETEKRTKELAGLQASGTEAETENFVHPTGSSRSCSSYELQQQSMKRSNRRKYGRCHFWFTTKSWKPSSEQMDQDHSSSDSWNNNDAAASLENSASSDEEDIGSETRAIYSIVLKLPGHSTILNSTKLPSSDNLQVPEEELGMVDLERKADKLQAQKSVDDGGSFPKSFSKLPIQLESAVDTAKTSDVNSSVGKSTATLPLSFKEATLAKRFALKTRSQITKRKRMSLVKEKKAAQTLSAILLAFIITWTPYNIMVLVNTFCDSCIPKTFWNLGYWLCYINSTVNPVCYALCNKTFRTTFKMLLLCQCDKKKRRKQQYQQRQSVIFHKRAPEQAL
normalized AUC [1],agonist capacity at hM2 [2],EC50 [3],agonist capacity at hM3 [3],agonist capacity at hM4 [4],agonist capacity at hM5 [5],SMILES
6780 pg·h/mg,modestly potent partial agonists,27.2 nM,modestly potent partial agonists,efficacious partial agonist,modestly potent partial agonists,"[2H]C([2H])([2H])N1CCC=C(c2nsnc2OC([2H])([2H])C([2H])([2H])C([2H])([2H])C([2H])([2H])C([2H])([2H])C([2H])([2H])[2H])C1 [Xanomeline-d16, 3-((hexyl-1,1,2,2,3,3,4,4,5,5,6,6,6-d13)oxy)-4-(1-(methyl-d3)-1,2,5,6-tetrahydropyridin-3-yl)-1,2,5-thiadiazole]"
8070 pg·h/mg,modestly potent partial agonists,9.66 nM,modestly potent partial agonists,efficacious partial agonist,modestly potent partial agonists,"[2H]C([2H])([2H])C([2H])([2H])C([2H])([2H])C([2H])([2H])C([2H])([2H])C([2H])([2H])Oc1nsnc1C1=CCCN(C)C1 [Xanomeline-d13, 3-((hexyl-1,1,2,2,3,3,4,4,5,5,6,6,6-d13)oxy)-4-(1-methyl-1,2,5,6-tetrahydropyridin-3-yl)-1,2,5-thiadiazole]"
4210 pg·h/mg,–,–,–,–,–,"CCCCCCOc1nsnc1C1=CCCN(C)C1 [Xanomeline tartrate, 3-(hexyloxy)-4-(1-methyl-1,2,5,6-tetrahydropyridin-3-yl)-1,2,5-thiadiazole, reference compound]"
